Reference: patent US20250197436A1, “GALACTOOLIGOSACCHARIDE COMPOSITION” (priority 2022, published 2025)

Tested on: microbiota present in the faecal samples
Assay: Faecal fermentation, distribution of oligosaccharides (HPAEC-PAD peak areas)
Description: HPAEC-PAD (high performance anion exchange chromatography) equipped with a PA-1 column was used for separation of mono- and oligosaccharides of the different samples. […] The samples as used for GPC were 100-fold diluted with DMSO before injection.
The distribution of oligosaccharides in the mixtures was also monitored over this time period using the method described above in relation to Table 2.

[1] = Comp. Ex. 1 sample, 6 h, Donor A
[2] = Comp. Ex. 1 sample, 6 h, Donor B
[3] = Comp. Ex. 1 sample, 6 h, Donor C
[4] = Comp. Ex. 1 sample, 24 h, Donor A
[5] = Comp. Ex. 1 sample, 24 h, Donor B
[6] = Comp. Ex. 1 sample, 24 h, Donor C
[7] = Comp. Ex. 1 sample, 48 h, Donor A
[8] = Comp. Ex. 1 sample, 48 h, Donor B
[9] = Comp. Ex. 1 sample, 48 h, Donor C
[10] = Example 2 sample, 24 h, Donor A
[11] = Example 2 sample, 24 h, Donor B
[12] = Example 2 sample, 24 h, Donor C
[13] = Example 2 sample, 48 h, Donor A
[14] = Example 2 sample, 48 h, Donor B
[15] = Example 2 sample, 48 h, Donor C

Row | Structure (SMILES) | Peak areas (Comp. Ex. 1 sample, 0 h) | Peak areas [1] | Peak areas [2] | Peak areas [3] | Peak areas [4] | Peak areas [5] | Peak areas [6] | Peak areas [7] | Peak areas [8] | Peak areas [9] | Peak areas (Example 2 sample, 0 h) | Peak areas (Example 2 sample, 6 h, Donor A) | Peak areas (Example 2 sample, 6 h, Donor B) | Peak areas (Example 2 sample, 6 h, Donor C) | Peak areas [10] | Peak areas [11] | Peak areas [12] | Peak areas [13] | Peak areas [14] | Peak areas [15]
1 | OC[C@H]1O[C@@H](OC[C@H]2OC(O)[C@H](O)[C@@H](O)[C@@H]2O)[C@H](O)[C@@H](O)[C@H]1O (some centres unmarked) [Allolactos, Allolactose] | 16.2 | 0.0 | 0.0 | 0.0 | 0.0 | 0.0 | 0.0 | 0.0 | 0.0 | 0.0 | 24 | 1.3 | 0.0 | 0.0 | 0.0 | 0.0 | 0.0 | 0.0 | 0.0 | 0.0
2 | OC[C@H]1O[C@@H](O[C@@H]2[C@H](O)[C@@H](O)[C@H](O[C@H]3[C@H](O)[C@@H](O)C(O)O[C@@H]3CO)O[C@@H]2CO)[C@H](O)[C@@H](O)[C@H]1O (stereo partly drawn) [Cpd. ID 11, D-Gal-(β1-4)-D-Gal-(β1-4)-D-Glu] | 27.6 | 1.9 | 5.7 | 1.6 | 1.9 | 2.0 | 0.7 | 0.0 | 1.9 | 0.2 | 20.4 | 3.2 | 4.5 | 1.6 | 1.2 | 1.7 | 0.5 | 0.3 | 2.6 | 0.6
3 | OC[C@H]1O[C@@H](O[C@H]2[C@@H](O)[C@@H](CO)O[C@@H](O[C@H]3[C@H](O)[C@@H](O)C(O)O[C@@H]3CO)[C@@H]2O)[C@H](O)[C@@H](O)[C@H]1O (stereo partly drawn) [Cpd. ID 12, D-Gal-(β1-3)-D-Gal-(β1-4)-D-Glu] | 1.4 | 1.4 | 0.8 | 0.9 | 0.4 | 0.4 | 0.4 | 0.1 | 1.1 | 0.1 | 28.9 | 1.1 | 5.4 | 1.2 | 0.4 | 0.7 | 0.3 | 0.3 | 0.7 | 0.2
4 | OC[C@H]1O[C@@H](O[C@H]2[C@@H](O)[C@@H](CO)O[C@@H](O[C@H]3[C@H](O)[C@@H](CO)OC(O)[C@@H]3O)[C@@H]2O)[C@H](O)[C@@H](O)[C@H]1O (stereo partly drawn) [Cpd. ID 29, D-Gal-(β1-3)-D-Gal-(β1-3)-D-Glu] | 4.7 | 0.1 | 2.0 | 1.0 | 0.2 | 0.4 | 0.0 | 0.0 | 0.3 | 0.0 | 12.8 | 1.1 | 2.0 | 0.4 | 0.0 | 0.0 | 0.0 | 0.1 | 0.4 | 0.1
5 | OC[C@H]1O[C@@H](O[C@H]2[C@@H](O)[C@@H](CO)O[C@@H](O[C@H]3C(O)O[C@H](CO)[C@@H](O)[C@@H]3O)[C@@H]2O)[C@H](O)[C@@H](O)[C@H]1O (stereo partly drawn) [Cpd. ID 30, D-Gal-(β1-3)-D-Gal-(β1-2)-D-Glu] | 2.6 | 0.0 | 1.3 | 0.3 | 0.0 | 0.5 | 0.0 | 0.0 | 0.6 | 0.0 | 12.6 | 0.0 | 1.8 | 0.9 | 0.0 | 0.5 | 0.0 | 0.1 | 0.0 | 0.2
6 | OC[C@H]1O[C@@H](O[C@H]2[C@@H](O)[C@@H](CO)O[C@@H](O[C@H]3[C@@H](O)[C@@H](CO)O[C@@H](O[C@H]4[C@H](O)[C@@H](O)C(O)O[C@@H]4CO)[C@@H]3O)[C@@H]2O)[C@H](O)[C@@H](O)[C@H]1O (stereo partly drawn) [Cpd. ID 31, D-Gal-(β1-3)-D-Gal-(β1-3)-D-Gal-(β1-4)-D-Glu] | 0.8 | 0.0 | 0.5 | 0.3 | 0.5 | 0.5 | 0.0 | 0.0 | 0.4 | 0.0 | – | 0.0 | 2.0 | 0.3 | 0.2 | 0.3 | 0.0 | 0.0 | 0.0 | 0.0
7 | O=C[C@H](O)[C@@H](O)[C@@H](O)[C@H](O)CO [Galactose] | 0.5 | 2.4 | 45.1 | 0.7 | 0.0 | 0.1 | 0.0 | 0.0 | 0.0 | 0.0 | 1.3 | 2.1 | 47.3 | 0.8 | 0.0 | 0.1 | 0.0 | 0.0 | 0.0 | 0.0
8 | O=C[C@H](O)[C@@H](O)[C@H](O)[C@H](O)CO [Glucose] | 19.5 | 2.9 | 34.1 | 0.2 | 0.0 | 0.1 | 0.0 | 0.0 | 0.0 | 0.0 | 17.5 | 2.6 | 26.9 | 0.3 | 0.0 | 0.0 | 0.0 | 0.0 | 0.0 | 0.0
9 | OC[C@H]1O[C@@H](O[C@H]2[C@H](O)[C@@H](O)C(O)O[C@@H]2CO)[C@H](O)[C@@H](O)[C@H]1O (some centres unmarked) [Lactose] | 48.4 | 0.7 | 1.9 | 0.4 | 0.4 | 0.5 | 0.4 | 0.3 | 0.5 | 0.3 | 30.9 | 0.3 | 5.3 | 0.6 | 0.3 | 0.4 | 0.4 | 0.3 | 0.5 | 0.3
